The text below walks through data of patent publication US20050244328A1 (priority 2002, published 2005).

“And” between values parts separate entries of the source, which are not always exact repeats. Equal values may be shown once. Read-outs that look alike come from different tables or passages of the source.

The test system of data set [1] is Eschericia Coli. Particulars: cited from earlier work.
Data set [2] relates to Fecal Coliform. Kind of data set: Fecal coliform counts in effluent, full-scale pilot and baseline at WWTP 2.
The test system of data set [3] is Mysidopsis bahia. Kind of data set: 96-hour bioassay of ClO2 treated side stream effluent, Independent Bioassay Laboratory A, mysid shrimp. Particulars: end of 96-hour test period; ClO2 treated side stream effluent grabs Sep. 3, 2001 12:00, 18:00, 24:00, Sep. 4, 2001 06:00. Type of data set: in vivo. The text has this:
(§1) Mysidopsis bahia (Mysids) and Menidia beryllina (Silversides) were subjected to ClO2 treated effluent in these tests. Adequate volumes of chemical were brought to the site to conduct a dosing of the side stream for a 24-hour period. During this period, 2 gallons of treated water were taken at 6-hour intervals, preserved on ice and shipped to an independent bioassay laboratory (designated Independent Bioassay Laboratory A).
(§2) Table 3(c) illustrates the survivability of the organisms at the 96-hour end-point in the test for each of the 4 samples taken (samples indicated by date and time each sample was taken.).

Data set [4] has as its system Menidia beryllina. In words: 96-hour bioassay of ClO2 treated side stream effluent, Independent Bioassay Laboratory A, silverside minnow. Type of data set: in vivo. Particulars: end of 96-hour test period; ClO2 treated side stream effluent grabs Sep. 3, 2001 12:00, 18:00, 24:00, Sep. 4, 2001 06:00.
From the text: as §1, §2

In data set [5] the test system is Saccharomyces diastaticus (yeast). Particulars: cited from earlier work.
Data set [6] has as its system Streptococcus. The settings on record: 1 ppm of ClO2; contact time 15 s; cited from earlier work.

Take Chlorine dioxide [ClO2]: the Inactivation in % in data set [1] (0.15 ppm of ClO2, contact time 300 s) is on record as 99.9%; in data set [1] (0.25 ppm of ClO2, contact time 60 s) it was above 99.999%; in data set [5] (0.15 ppm of ClO2, contact time 10 min), 99.9%; in data set [5] (0.5 ppm of ClO2, contact time 10 min), above 99.999%; in data set [5] (1 ppm of ClO2, contact time 1 min), above 99.999%; in data set [6], above 99.999%. The FECAL is 6 in data set [2] (13:00, 1.2 PPM DOSE RATE, sample point 1, 19 Aug. 2002); 26 in data set [2] (15:45, 1.05 PPM DOSE RATE, sample point 4, 19 Aug. 2002); 45 in data set [2] (WWTP 2 effluent 28-Aug, CL2SO2 at 8:30, CLO2 at 10:15). Besides, the “FC (fecal)” value in data set [2] (15:00, 0.91 PPM DOSE, sample point 4, 19 Aug. 2002) came out at 15. Further, in data set [3], the “Percent Survival Mysid bahia” value came to 0%. Besides, in data set [4], the “Percent Survival m. beryllina” value is 95% and 100%.
